Laboratory results: patent US20080139614A1, “Treatment Of Stroke With Histamine H3 Inverse Agonists Or Histamine H3 Antagonists” (priority 2004, published 2008)

Test system: harmaline-induced tremor
Assay: harmaline-induced tremor model in rats
Format: in vivo
Source text: The identification of a compound as a histamine H3 inverse agonist or a histamine H3 antagonist may be readily determined without undue experimentation by methodology well known in the art. The efficacy of a histamine H3 inverse agonist or a histamine H3 antagonist in treating stroke may be readily determined without undue experimentation by methodology well known in the art, for example the harmaline-induced tremor model in rats, Sinton, et al., Pflugers Archive Eur. J. Phys., 414(1) 31-36 (1989). […] The ability of the histamine H3 inverse agonist or histamine H3 antagonist to be used in the present invention to treat stroke may be determined by these methods.

Which results are given for N#Cc1ccc(-c2cnc(OC3CCN(C4CCCC4)CC3)nc2)cc1 [2-(1-cyclopentylpiperidine-4-yloxy)-5-(4-cyanophenyl)pyrimidine]?
reversal of harmaline-induced tremor (dose of 1 mg/kg): 8.4%; reversal of harmaline-induced tremor (dose of 3 mg/kg): 63.3%; reversal of harmaline-induced tremor (dose of 10 mg/kg): 84.4%
